Legend:
human CD22-Fc/Siglec-2 = assay: Feeding of free sialic acids to BJA-B K20 cells, probing with human CD22-Fc, flow cytometry; type: cell-based; conditions: 3 mM, 3 days of feeding
Procedure: Cell Culture and Sugar Supplementation.
Flow Cytometry. Cells were washed with PBS and incubated with 10 μg/mL of PToV probes in PBS with 1% BSA and 10 mM EDTA for 30 minutes on ice. Subsequently, cells were washed with PBS and incubated with PE goat anti-human IgG antibody for 30 minutes on ice. After an additional washing step, the cells were analyzed by FACSCalibur (BD).
After 3 days of feeding, BJA-B K20 cells were probed with human CD22-Fc/Siglec-2 to detect ligands (FIG. 7). […] However, when the cells were grown in the presence of Neu5Ac9NAc, the expression of the CD22 ligand was minimal (FIG. 7C). […] This supports previous observations that human CD22-Fc recognizes α2-6-linked sialosides with Neu5Ac or N-glycolylneuraminic acid (Neu5Gc) as the preferred naturally existing sialic acid form and 9-O-acetyl modification on sialic acid blocks the binding.

BJA-B K20 cells [1] = assay: Feeding of free sialic acids to BJA-B K20 cells, DMB derivatization and HPLC of membrane sialic acids; conditions: 1 mM for 3 days; sialic acids released with Vibrio cholerae neuraminidase
[2] = tested on: human Siglec-9-Fc (hSiglec-9); assay: Sialoglycan microarray binding of human Siglec-9-Fc; conditions: without esterase treatment (FIG. 3A)
Procedure: The synthesized glycan Neu5Ac9NAcα3Galβ4GlcβProNH2 was used in a glycan library for glycan microarray studies. Glycan microarrays were fabricated using epoxide-derivatized slides (Corning by Thermo Fisher Scientific) and Arrayit SpotBot® Extreme Microarray Spotter. The arrays were printed with Stealth SMP3 microarray spotting pins from ArrayIt (Sunnyvale, CA, USA) generating 100 μm diameter spots. 4 pins were used; with each pin printing 4 replicate spots/well. The glycoconjugates were prepared at 100 μM concentration in an optimized printing buffer (300 mM phosphate buffer, pH 8.4). They were then distributed into a 384-well source plate in 20 μL per well. To monitor printing quality, 4 replicate-wells of human IgG (Jackson ImmunoResearch) was used at 100 μg/ml (in PBS) for each printing-pin. One complete array was printed on each slide (within approx 12 hour/˜28 slides). The humidity level in the arraying chamber was maintained at about 60-65% during printing. Printed slides were left on spotter deck overnight, allowing humidity to drop to ambient levels. Printed glycan microarray slides were blocked by 50° C. pre-warmed blocking solution (0.1 M Tris-HCl, 0.05 M ethanolamine, pH 9.0, 1 h). They were then washed twice with 50° C. pre-warmed water and dried. Slides were packed, vacuum-sealed and stored at RT until used.
(§1) To assure the quality of the printed slides, one or two slides were used for quality control using antibodies, lectins and serum samples with known glycan binding specificity. For glycan array binding, slides were fitted in a multi-well microarray hybridization cassette (AHC4X8S, ArrayIt, Sunnyvale, CA, USA) to divide into 8 subarrays. The subarrays were blocked with Ovalbumin (1% w/v) in PBS (pH 7.4) for 1 h at RT, with gentle shaking. […] The data were further analyzed with Excel. […] The binding specificity to glycoconjugates for each protein was plotted based on the RFU (Relative Fluorescence Units), average fluorescence value for 4 replicates, versus glycan IDs. The standard deviations were calculated and the error bars were found for each glycan binding. […]

[3] = target: T1, human cytosolic sialidase hNEU2 (Homo sapiens, UniProt Q9Y3R4); assay: Sialidase substrate specificity of Leg glycosides (HPLC/capillary electrophoresis), hNEU2; type: biochemical; conditions: 37° C., 16 hs, pH 5.0
T1 construct: made in house

A. ureafaciens sialidase = assay: Sialidase substrate specificity of Leg glycosides (HPLC/capillary electrophoresis), A. ureafaciens sialidase; type: biochemical, Arthrobacter ureafaciens; conditions: pH 5.5
V. cholerae sialidase = target: T2, V. cholerae sialidase (Vibrio cholerae serotype O1, UniProt P0C6E9); assay: Sialidase substrate specificity of Leg glycosides (HPLC/capillary electrophoresis), V. cholerae sialidase; type: biochemical; conditions: pH 5.5
T2 construct: purchased Roche

[4] = target: C. perfringens sialidase (CpNanH) (Clostridium perfringens, UniProt P10481); type: biochemical; conditions: 37° C., 16 hs, pH 5.0
BiNanH2 = target: T3, BiNanH2 (Bifidobacterium longum, UniProt A0ACD7UU12); assay: Sialidase substrate specificity of Leg glycosides (HPLC/capillary electrophoresis), BiNanH2; type: biochemical, Bifidobacterium infantis; conditions: 37° C., 16 hs, pH 5.0
T3 sequence (A0ACD7UU12 1-394): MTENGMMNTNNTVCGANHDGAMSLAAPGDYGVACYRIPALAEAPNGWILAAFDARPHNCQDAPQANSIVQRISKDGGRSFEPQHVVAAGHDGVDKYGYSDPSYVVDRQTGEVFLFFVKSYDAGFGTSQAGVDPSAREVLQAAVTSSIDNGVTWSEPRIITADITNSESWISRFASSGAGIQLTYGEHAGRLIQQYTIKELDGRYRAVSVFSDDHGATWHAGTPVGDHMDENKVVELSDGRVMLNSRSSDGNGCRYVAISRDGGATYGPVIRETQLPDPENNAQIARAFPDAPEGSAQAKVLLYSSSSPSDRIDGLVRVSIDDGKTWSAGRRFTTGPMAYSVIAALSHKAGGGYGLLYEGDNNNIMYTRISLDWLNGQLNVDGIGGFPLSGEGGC

SpNanA = target: T4, SpNanA (Streptococcus pneumoniae, UniProt P62575); assay: Sialidase substrate specificity of Leg glycosides (HPLC/capillary electrophoresis), SpNanA; type: biochemical; conditions: 37° C., 16 hs, pH 6.0
T4 construct: made in house

SpNanB = target: T5, SpNanB (Streptococcus pneumoniae serotype 4, UniProt Q54727, E68D/K536E/K577E/N393D/S59P); assay: Sialidase substrate specificity of Leg glycosides (HPLC/capillary electrophoresis), SpNanB; type: biochemical; conditions: 37° C., 16 hs, pH 6.0
T5 construct: made in house

SpNanC = SpNanC (Streptococcus pneumoniae, UniProt A0A0H2UQE4); assay: Sialidase substrate specificity of Leg glycosides (HPLC/capillary electrophoresis), SpNanC; type: biochemical; conditions: 37° C., 16 hs, pH 6.5
[5] = target: T6, PmST1 (α2-3-sialidase activity) (Pasteurella multocida, UniProt Q15KI8); assay: Kinetic studies for PmST1 α2-3-sialidase activity (HPLC); type: biochemical; conditions: 0.4 mM CMP
T6 construct: made in house
Procedure: Kinetic studies for PmST1 were performed in duplicates at 37° C. for 10 min. […] The reactions were stopped by adding 20 μL of pre-chilled ethanol. The mixtures were then centrifuged and the supernatants were analyzed by the HPLC system described above for sialidase substrate specificity studies assays. Apparent kinetic parameters were obtained by varying substrate concentrations from 0.1-40 mM (0.1, 0.2, 0.4, 1, 2, 4, 10, 20, and 40 mM) and fitting the data (the average values of duplicate assay results) into the Michaelis-Menten equation using Grafit 5.0.

[6] = De-O-acetylation of 9-OAc glycan during glycan microarray process (DMB derivatization, HPLC); type: physicochemical
[7] = tested on: porcine torovirus hemagglutinin-esterase (PToV-P4-Fc, esterase inactivated); assay: Sialoglycan microarray binding of PToV-P4-Fc (esterase inactive); conditions: without esterase treatment (FIG. 3A)
[8] = tested on: PToV-P4-Fc (esterase active); assay: Treatment of glycan microarray with esterase active PToV, then probe binding; type: biochemical, porcine torovirus; conditions: 20 μg/mL PToV-P4-Fc (esterase active), 2 h, RT; FIG. 3B vs FIG. 3A
Procedure: as §1, with “shaking. For the esterase activity studies on the array, after removing the blocking solution, slides were first treated with 20 μg/mL PToV-P4-Fc (esterase active) in blocking buffer for 2 h at RT and then washed with PBS in 0.1% Tween 20 and then PBS (10 min/wash with shaking). Subsequently, diluted protein samples in blocking solution with various concentrations were added to each subarray (both esterase treated and non-treated slides). After incubating the protein samples for 2 h at RT with gentle shaking, the slides were washed with PBS in 0.1% Tween 20 and then PBS (10 min/wash with shaking).” for “shaking.”

BJA-B K20 cells [9] = assay: Feeding of free sialic acids to BJA-B K20 cells, PToV probes, flow cytometry; type: cell-based, human
[10] = target: T7, wild-type PmST1 (α2-3-sialidase activity) (Pasteurella multocida, UniProt Q15KI8); assay: Sialidase substrate specificity of Leg glycosides (HPLC/capillary electrophoresis), PmST1; type: biochemical; conditions: 37° C., 16 hs, CMP (0.4 mM), pH 5.5
T7 construct: made in house

T1 sequence (Q9Y3R4 whole entry): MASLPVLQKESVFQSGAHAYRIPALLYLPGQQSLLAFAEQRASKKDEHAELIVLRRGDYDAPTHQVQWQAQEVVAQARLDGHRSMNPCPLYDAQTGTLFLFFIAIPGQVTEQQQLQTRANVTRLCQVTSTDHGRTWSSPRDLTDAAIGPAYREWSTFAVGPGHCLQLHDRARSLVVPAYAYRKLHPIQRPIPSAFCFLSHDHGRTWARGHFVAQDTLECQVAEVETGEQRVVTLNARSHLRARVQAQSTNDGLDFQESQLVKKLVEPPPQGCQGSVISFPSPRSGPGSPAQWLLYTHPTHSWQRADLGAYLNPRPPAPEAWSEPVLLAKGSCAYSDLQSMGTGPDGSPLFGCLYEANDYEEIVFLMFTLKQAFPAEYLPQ

CC(=O)N[C@H]1[C@H]([C@H](O)[C@H](O)CO)OC(O)(C(=O)O)C[C@@H]1O (stereo partly drawn) [Neu5Ac, N-acetylneuraminic acid]
expression of CD22 ligand on fed cells (human CD22-Fc/Siglec-2): high expression of CD22 ligand | incorporation on the cell membrane (DMB-HPLC) (BJA-B K20 cells [1]): showed incorporation

CC(=O)N[C@H]1[C@H]([C@H](O)[C@H](O)CO)O[C@@](O[C@H]2[C@@H](O)[C@@H](CO)O[C@@H](O[C@H]3[C@H](O)[C@@H](O)[C@H](OCCCN)O[C@@H]3CO)[C@@H]2O)(C(=O)O)C[C@@H]1O [Neu5Acα3Galβ4GlcβProNH2]
binding of hSiglec-9 on glycan microarray [2]: prefers binding

CC(=O)N[C@@H]1C(O)C[C@](OC2C(O)[C@H](Oc3ccc([N+](=O)[O-])cc3)OC(CO)[C@@H]2O)(C(=O)O)OC1[C@H](NC(C)=O)[C@@H](C)O (stereo partly drawn) [3-19, Leg5,7Ac2α2-3GalβpNP]
activity of hNEU2 for the compound [3]: did not show activity | activity of A. ureafaciens sialidase for the compound (A. ureafaciens sialidase): did not show activity | activity of V. cholerae sialidase for the compound (V. cholerae sialidase): did not show activity | activity of C. perfringens sialidase (CpNanH) for the compound [4]: did not show activity | activity of BiNanH2 for the compound (BiNanH2): did not show activity | activity of SpNanA for the compound (SpNanA): did not show activity | activity of SpNanB for the compound (SpNanB): did not show activity | activity of SpNanC for the compound (SpNanC): did not show activity | α2-3-sialidase activity of PmST1, fold less efficient than for Neu5Acα2-3GalβpNP [5]: about 30 fold

CC(=O)N[C@H]1[C@H]([C@H](O)[C@H](O)COC(C)=O)O[C@@](O[C@H]2[C@@H](O)[C@@H](CO)O[C@@H](O[C@H]3[C@H](O)[C@@H](O)[C@H](OCCCN)O[C@@H]3CO)[C@@H]2O)(C(=O)O)C[C@@H]1O [Neu5,9Ac2α3Galβ4GlcβProNH2]
loss of the OAc group ([6]; AUS treatment followed by DMB derivatization at low temperature (FIG. 2B)): 1.5% | OAc group lost from the 9-position of Neu5Ac or migrated to 7- and 8-positions ([6]; release of sialic acids with acetic acid, DMB derivatization, HPLC (FIG. 2A)): ~45% | sialic acid de-O-acetylated ([6]; standard blocking condition (ethanolamine in Tris-HCl buffer, pH 9.0)): about 5% | OAc group released ([6]; stock solution after three months at −20° C. and a few freeze-thaw cycles): 4% | loss of OAc ([6]; storage in phosphate buffer (pH 8.4) at room temperature): about 3% | binding of hSiglec-9 on glycan microarray [2]: observable binding | binding of PToV on glycan microarray [7]: slightly stronger binding to the 9OAc derivative | stability of the 9-modification towards esterase active PToV [8]: esterase lability of 9OAc

CC(=O)N[C@H]1[C@H]([C@H](O)[C@H](O)COC(C)=O)OC(O)(C(=O)O)C[C@@H]1O (stereo partly drawn) [Neu5,9Ac2, 9-O-acetyl-N-acetylneuraminic acid]
turnover on cell surface (BJA-B K20 cells [9]; 1 mM for two days, then sugar removed, monitored for 4 days with PToV (esterase inactive) probe): faster than that of Neu5Ac9NAc | cell surface incorporation detected with PToV probe (BJA-B K20 cells [9]; 1 mM free sialic acid, three days of feeding): detected on the cell surface | expression of CD22 ligand on fed cells (human CD22-Fc/Siglec-2): between the two | incorporation on the cell membrane (DMB-HPLC) (BJA-B K20 cells [1]): showed incorporation

CC(=O)NC[C@@H](O)[C@@H](O)[C@@H]1O[C@@](O[C@H]2[C@@H](O)[C@@H](CO)O[C@@H](O[C@H]3[C@H](O)[C@@H](O)[C@H](OCCCN)O[C@@H]3CO)[C@@H]2O)(C(=O)O)C[C@H](O)[C@H]1NC(C)=O [Neu5Ac9NAcα3Galβ4GlcβProNH2, 3-Aminopropyl O-(5,9-Diacetamido-3,5,9-trideoxy-D-glycero-α-D-galacto-2-nonulopyranosylonic acid)-(2→3)-O-β-D-galactopyranosyl-(1→4)-β-D-glucopyranoside]
binding of hSiglec-9 on glycan microarray [2]: observable binding | binding of PToV on glycan microarray [7]: prefer binding | stability of the 9-modification towards esterase active PToV [8]: stability of 9NAc

C[C@@H](O)[C@@H](N=[N+]=[N-])C1O[C@@](OC2C(O)[C@H](Oc3ccc([N+](=O)[O-])cc3)OC(CO)[C@@H]2O)(C(=O)O)CC(O)[C@H]1N=[N+]=[N-] (stereo partly drawn) [3-13, Leg5,7diN3α2-3GalβpNP]
substrate for the α2-3-sialidase activity of wild-type PmST1 [10]: not | activity of hNEU2 for the compound [3]: did not show activity | activity of A. ureafaciens sialidase for the compound (A. ureafaciens sialidase): did not show activity | activity of V. cholerae sialidase for the compound (V. cholerae sialidase): did not show activity | activity of C. perfringens sialidase (CpNanH) for the compound [4]: did not show activity | activity of BiNanH2 for the compound (BiNanH2): did not show activity | activity of SpNanA for the compound (SpNanA): did not show activity | activity of SpNanB for the compound (SpNanB): did not show activity | activity of SpNanC for the compound (SpNanC): did not show activity
